In PubChem BioAssay (NCI):
“And” between values parts separate entries of the source, which are not always exact repeats. Equal entries are not always repeated.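 These data come from cells grown in 96-well plates and exposed to compound for 48 hours at five concentrations. Abbreviation: GI50, concentration required for 50% inhibition of growth. At the TGI there is no net growth.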

Assays:
Experiment in all cases: growth of human tumour cells (NCI), 48 h
UO-31 renal = system: UO-31 renal
OVCAR-4 ovarian = system: OVCAR-4 ovarian
MALME-3M melanoma = system: MALME-3M melanoma
TK-10 renal = system: TK-10 renal
OVCAR-3 ovarian = system: OVCAR-3 ovarian
SK-OV-3 ovarian = system: SK-OV-3 ovarian
HOP-62 NSCLC = system: HOP-62 NSCLC
MDA-MB-231 breast = system: MDA-MB-231 breast
T-47D breast = system: T-47D breast
COLO 205 colon = system: COLO 205 colon
SF-268 CNS = system: SF-268 CNS

| Compound | TGI (UO-31 renal) | TGI (OVCAR-4 ovarian) | TGI (MALME-3M melanoma) | TGI (TK-10 renal) | TGI (OVCAR-3 ovarian) | TGI (SK-OV-3 ovarian) | TGI (HOP-62 NSCLC) | TGI (MDA-MB-231 breast) | TGI (T-47D breast) | TGI (COLO 205 colon) | TGI (SF-268 CNS) | GI50 (UO-31 renal) | GI50 (OVCAR-4 ovarian) | GI50 (HOP-62 NSCLC) | GI50 (COLO 205 colon) | GI50 (SF-268 CNS) |
| --- | --- | --- | --- | --- | --- | --- | --- | --- | --- | --- | --- | --- | --- | --- | --- | --- |
| COc1cccc(NC(=O)CC(=O)NN)c1 | > 100 µM | > 100 µM | > 100 µM | > 100 µM | > 100 µM | > 100 µM | > 100 µM | > 100 µM | > 100 µM | > 100 µM | > 100 µM | – | – | – | – | – |
| CC(=O)c1csc2c1C(=O)c1ccccc1C2=O | 6.13 µM | 18.3 µM | 1.7 µM | 4.99 µM | > 100 µM | > 100 µM | 4.36 µM | > 62.9 µM | 50.8 µM | 3.62 µM | 12.9 µM | – | – | – | – | – |
| CCOC(=O)[C@@]12C[C@](/C=C/OC)(O[Si](C)(C)C)[C@@]13c1cc(OC)c(OC)cc1CCN3C(=O)C2=O | > 100 µM | > 100 µM | > 100 µM | > 100 µM | > 100 µM | > 100 µM | > 100 µM | > 100 µM | > 100 µM | > 100 µM | > 100 µM | – | – | – | – | – |
| Cc1ccc(C2=CC(=O)/C(=C\C(=O)c3ccc(Br)cc3)O2)c(C)c1 | 27.7 µM | 23.9 µM | 21.3 µM | 15.9 µM | 16.1 µM | 29 µM | > 66.7 µM | 26.8 µM | 43.1 µM | 14.3 µM | 31.5 µM | – | – | – | – | – |
| C[N+](C)(CCNc1ccc(NCC[N+](C)(C)Cc2ccc([N+](=O)[O-])cc2)c2c1C(=O)c1c(O)ccc(O)c1C2=O)Cc1ccc([N+](=O)[O-])cc1 | > 50 µM | > 50 µM | > 50 µM | > 50 µM | > 50 µM | > 50 µM | > 50 µM | > 50 µM | > 50 µM | > 50 µM | > 50 µM | – | – | – | – | – |
| COC(=O)c1ccccc1C1CN=NC12Cc1ccc(C)cc1C2=O (stereo not given) | > 100 µM | > 100 µM | > 100 µM | > 100 µM | > 100 µM | > 100 µM | > 100 µM | > 100 µM | > 100 µM | > 100 µM | > 100 µM | – | – | – | – | – |
| Nc1nc(N)c2nc(CN(C=O)c3ccc(C(=O)O)cc3)cnc2n1 | > 100 µM | > 100 µM | > 100 µM | > 100 µM | > 100 µM | > 100 µM | > 100 µM | > 100 µM | > 100 µM | > 100 µM | > 100 µM | – | – | – | – | – |
| CCCC(=O)Nc1cc(C(=O)N2C[C@H]3C[C@@]34C2=CC(=O)c2[nH]cc(C)c24)n(COC)c1 | 3.64 µM | 4.76 µM and 0.626 µM | 0.439 µM | 2.87 µM | 0.688 µM | 5.36 µM | – | 3 µM | 1.49 µM | 1.14 µM and 0.261 µM | 1.5 µM and 11.1 µM | 0.561 µM | 0.239 µM | 0.104 µM | 0.119 µM | 0.0847 µM |
| CCOC(=O)Cc1c(C(=O)OCC)[n+](=O)c2cc(Cl)c(Cl)cc2n1[O-] | 3.36 µM | 3.51 µM | 3.21 µM | 2.83 µM | 5.04 µM | 11.9 µM | 4.27 µM | 7.02 µM | 6.76 µM | 3.27 µM | 7.87 µM | – | – | – | – | – |
| O=C1c2cc3c(cc2NC(c2ccccc2F)C1O)OCO3 (stereo not given) | > 75.8 µM | > 84.9 µM | > 100 µM | 73.1 µM | > 62.7 µM | 51.1 µM | > 66.1 µM | > 76.2 µM | > 100 µM | > 39.8 µM | 68.2 µM | – | – | – | – | – |
| NC(CCC(=O)c1ccccn1)C(=O)O (stereo not given) | > 100 µM | > 100 µM | > 100 µM | > 100 µM | > 100 µM | > 100 µM | > 100 µM | > 100 µM | > 100 µM | > 100 µM | > 100 µM | – | – | – | – | – |
| CC(C)(C)OC(=O)Cn1ncn(NC(=O)Cc2ccccc2)c1=S | > 10 µM | > 10 µM | > 10 µM | > 10 µM | > 10 µM | > 10 µM | > 10 µM | > 10 µM | > 10 µM | > 10 µM | > 10 µM | – | – | – | – | – |
| COc1cc(/C=C(\C)[N+](=O)[O-])cc(OC)c1 | 29.1 µM | 33.5 µM | 29.4 µM | 26.1 µM | 31.8 µM | > 100 µM | 33.7 µM | 31 µM | 16.3 µM | 20.1 µM | 35.6 µM | – | – | – | – | – |
| COC(=O)c1ccccc1CC1Cc2c(C)ccc(C)c2C1=O (stereo not given) | > 100 µM | > 100 µM | 57.5 µM | 71.2 µM | > 100 µM | > 100 µM | > 100 µM | > 100 µM | 87.2 µM | 34.3 µM | > 100 µM | – | – | – | – | – |
| CC(=O)O[C@H]1[C@@H](N2CCOCC2)C[C@H]2[C@@H]3CC=C4C[C@@H](N5CCCC5)CC[C@]4(C)[C@H]3CC[C@@]21C | > 100 µM | > 100 µM | > 100 µM | > 100 µM | > 100 µM | > 100 µM | > 100 µM | > 100 µM | > 100 µM | > 100 µM | > 100 µM | – | – | – | – | – |
| c1ccc(C(Oc2noc3ccccc23)c2ccccc2)cc1 | > 100 µM | > 100 µM | > 100 µM | > 100 µM | > 100 µM | > 100 µM | > 100 µM | > 100 µM | 23.1 µM | 37 µM | > 100 µM | – | – | – | – | – |
